Experiment [1] has as its target T1, Purine nucleoside phosphorylase (Homo sapiens, UniProt P00491).
T1 sequence (P00491 whole entry): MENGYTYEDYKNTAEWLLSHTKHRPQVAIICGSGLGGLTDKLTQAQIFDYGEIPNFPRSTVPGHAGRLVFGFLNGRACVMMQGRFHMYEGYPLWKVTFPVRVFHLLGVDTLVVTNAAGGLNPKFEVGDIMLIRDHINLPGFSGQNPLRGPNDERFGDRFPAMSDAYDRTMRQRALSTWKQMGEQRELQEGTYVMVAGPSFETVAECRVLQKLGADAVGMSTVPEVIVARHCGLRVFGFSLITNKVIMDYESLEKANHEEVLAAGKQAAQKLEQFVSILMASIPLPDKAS
Description: Inhibition of Purine nucleoside phosphorylase was evaluated against the enzyme from Human erythrocytic in 50 mM phosphate. Format: tissue-based.

For experiment [2], the target named is T2, Purine nucleoside phosphorylase (Bos taurus, UniProt P55859).
T2 sequence (P55859 whole entry): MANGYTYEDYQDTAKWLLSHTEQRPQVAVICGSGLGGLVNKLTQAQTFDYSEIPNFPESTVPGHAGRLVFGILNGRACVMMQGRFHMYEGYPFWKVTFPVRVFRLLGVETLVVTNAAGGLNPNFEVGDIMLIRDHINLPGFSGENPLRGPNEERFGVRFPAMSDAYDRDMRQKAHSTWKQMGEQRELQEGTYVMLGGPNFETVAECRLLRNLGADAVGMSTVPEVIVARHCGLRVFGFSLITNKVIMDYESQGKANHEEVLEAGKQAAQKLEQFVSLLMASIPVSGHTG
The experiment can be described thus: Inhibition of purine nucleoside phosphorylase against the enzyme from calf spleen in 1 mM phosphate.

The target of experiment [3] is T2, Purine nucleoside phosphorylase. The experiment can be described thus: Inhibition of Purine nucleoside phosphorylase was evaluated against the enzyme from calf spleen in 50 mM phosphate.
Experiment [4] shares this target. The experiment can be described thus: Inhibition of Purine nucleoside phosphorylase was evaluated against the enzyme from calf spleen in 1 mM phosphate. Format: tissue-based.

For orientation: IC50 means the midpoint of a concentration-inhibition curve. As a reminder, the Ki is the equilibrium dissociation constant of an inhibitor or competing ligand from its target. Read a high Ki as weaker binding.

Each structure is given as a SMILES string.

In experiment [1], `Nc1nc(O)c2[nH]c(Nc3cccnc3)nc2n1` gave an IC50 of 21900 nM.

Take `Nc1nc(O)c2nc(N)n(Cc3cccs3)c2n1`: the IC50 in experiment [2] and in experiment [3] was 160 nM in each case.

As for `Nc1nc(O)c2c(n1)CC(Cc1ccco1)=N2`, half-maximal inhibition in experiment [1] (IC50) required 57 nM.

Compound `Nc1nc(O)c2c(n1)CC(NCc1ccsc1)=N2` showed an IC50 in experiment [1] of 630 nM.

Take `Nc1nc(O)c2[nH]cc(Cc3cc(Cl)cc(Cl)c3Cl)c2n1`: the IC50 came out at 240 nM in experiment [2] and 10000 nM in experiment [3].

Consider `Nc1nc2nc(NCc3ccsc3)[nH]c2c(=O)[nH]1`, for which, in experiment [1], the IC50 came to 85 nM.

`Nc1nc2c(Cc3cccc(C(F)(F)F)c3)c[nH]c2c(=O)[nH]1`: the IC50 is 36 nM in experiment [2] and 190 nM in experiment [3].

`Nc1nc(O)c2[nH]cc(Cc3ccco3)c2n1`: the IC50 in experiment [2] is 83 nM.

`NC1=NC(=O)C2NC(N)=C(Cc3ccsc3)C2N1` (configuration not stated) displayed an IC50 in experiment [2] of 0.63 nM.

Regarding `Nc1nc2c(Cc3cccnc3)c[nH]c2c(=O)[nH]1` [PELDESINE], the IC50 in experiment [2] was 25 nM; in experiment [3], 190 nM.

As for `Nc1nc(O)c2[nH]c(Cc3ccco3)nc2n1`, in experiment [1], half-maximal inhibition (IC50) was put at 17900 nM.

For the compound `Nc1nc2c(Cc3ccccc3O)c[nH]c2c(=O)[nH]1`, the IC50 was determined as 270 nM in experiment [2] and 2000 nM in experiment [3].

Consider `NC1=NC(=O)C2NC=C(Cc3ccccc3)C2N1` (configuration not stated), for which the values for the Ki in experiment [4] and in experiment [3] were 12 nM and 100 nM, respectively.

`Nc1nc(O)c2[nH]c(NCc3cccs3)nc2n1` showed an IC50 in experiment [1] of 160 nM.

In the case of `Cc1cccc(Cc2c[nH]c3c(=O)[nH]c(N)nc23)c1`, the results for the IC50 in experiment [2] and in experiment [3] were 57 nM and 270 nM, respectively.

`Nc1nc(O)c2[nH]cc(Cc3ccc(O)cc3)c2n1`: the IC50 amounted to 260 nM in experiment [2] and 2300 nM in experiment [3].

As for `Cc1ccsc1CNC1=Nc2c(O)nc(N)nc2C1`, the IC50 in experiment [1] came out at 4050 nM.

Turning to `Nc1nc(O)c2c(n1)CC(NCc1cccs1)=N2`, half-maximal inhibition in experiment [1] (IC50) required 1000 nM.

In the case of `COc1cccc(Cc2c[nH]c3c(O)nc(N)nc23)c1`, the 50% inhibitory concentration (IC50) in experiment [2] came out at 82 nM; in experiment [3], 660 nM.

For the compound `NC1=NC(=O)C2NC=C(Cc3ccsc3)C2N1` (configuration not stated), in experiment [2], the IC50 was 0.067 nM. This compound also gave a Ki in experiment [4] of 15 nM.

`Nc1nc(O)c2c(n1)CC(NCc1ccco1)=N2`: the midpoint of inhibition in experiment [1], the IC50, lay at 750 nM.

As for `Nc1nc(O)c2[nH]c(NCc3ccco3)nc2n1`, half-maximal inhibition in experiment [1] (IC50) was put at 250 nM.

For `Nc1nc(O)c2[nH]c(Cc3ccccc3)nc2n1`, the IC50 in experiment [1] worked out at 29600 nM.

`Nc1nc(O)c2[nH]c(Cc3cccs3)nc2n1` returned an IC50 in experiment [1] of 11000 nM.

As to `Nc1nc(O)c2c(n1)CC(Cc1cccs1)=N2`, the IC50 in experiment [1] came to 30 nM.

The compound `Nc1nc(O)c2c(n1)CC(Cc1ccccc1)=N2` showed an IC50 in experiment [1] of 85 nM.

In experiment [1], `Nc1nc(O)c2c(n1)CC(Cc1ccsc1)=N2` displayed an IC50 of 67 nM.

`Nc1nc(O)c2c(n1)CC(c1cccnc1)=N2`: the IC50 in experiment [3] was 0.16 nM.

Take `Nc1nc(O)c2[nH]cc(Cc3ccccc3Cl)c2n1`: the values for the IC50 in experiment [2] and in experiment [3] were 120 nM and 2520 nM, respectively.

In the case of `Nc1nc(O)c2[nH]c(Cc3ccsc3)nc2n1`, half-maximal inhibition in experiment [1] (IC50) was put at 11000 nM.

In the case of `Nc1nc2c(Cc3ccc(I)cc3)c[nH]c2c(=O)[nH]1`, the figures for the IC50 in experiment [2] and in experiment [3] were 23 nM and 270 nM, respectively.

Consider `Cc1ccsc1CC1=Nc2c(O)nc(N)nc2C1`, for which the IC50 in experiment [1] amounted to 47600 nM.

Turning to `Nc1nc2c(Cc3ccc(Cl)c(Cl)c3)c[nH]c2c(=O)[nH]1`, the results for the IC50 in experiment [2] and in experiment [3] were 17 nM and 250 nM, respectively.

Consider `Nc1nc(O)c2[nH]cc(Cc3ccsc3)c2n1`, for which half-maximal inhibition in experiment [2] (IC50) required 25 nM.

Consider `Nc1nc2c(Cc3cccc(F)c3)c[nH]c2c(=O)[nH]1`, for which the IC50 in experiment [2] was found to be 24 nM; in experiment [3], 220 nM.

`Nc1nc2nc(-c3cccnc3)[nH]c2c(=O)[nH]1`: half-maximal inhibition in experiment [1] (IC50) was put at 57000 nM.

Consider `Nc1nc2c(Cc3cccc(Oc4ccccc4)c3)c[nH]c2c(=O)[nH]1`, for which the IC50 in experiment [3] stood at 740 nM.

In experiment [1], `Nc1nc2nc(NCc3ccccc3)[nH]c2c(=O)[nH]1` returned an IC50 of 470 nM.

`Nc1nc(O)c2c(n1)CC(NCc1ccccc1)=N2` showed an IC50 in experiment [1] of 850 nM.

Take `Nc1nc2c(Cc3cccc(Cl)c3)c[nH]c2c(=O)[nH]1`: the IC50 came to 20 nM in experiment [2] and 150 nM in experiment [3].

The compound `Cc1ccsc1CNc1nc2[nH]c(N)nc(O)c-2n1` had a 50% inhibitory concentration (IC50) in experiment [1] of 4050 nM.

The compound `Cc1ccsc1Cc1nc2nc(N)[nH]c(=O)c2[nH]1` came in with an IC50 in experiment [1] of 47600 nM.
